We go through 36 compounds from patent publication US8946203B2, “Benzodioxane inhibitors of leukotriene production” (Boehringer Ingelheim International GmbH, priority 2012, dated 2015).

This test deals with T1, human LTA4 hydrolase (Homo sapiens, UniProt P09960).
T1 sequence (P09960 1-611): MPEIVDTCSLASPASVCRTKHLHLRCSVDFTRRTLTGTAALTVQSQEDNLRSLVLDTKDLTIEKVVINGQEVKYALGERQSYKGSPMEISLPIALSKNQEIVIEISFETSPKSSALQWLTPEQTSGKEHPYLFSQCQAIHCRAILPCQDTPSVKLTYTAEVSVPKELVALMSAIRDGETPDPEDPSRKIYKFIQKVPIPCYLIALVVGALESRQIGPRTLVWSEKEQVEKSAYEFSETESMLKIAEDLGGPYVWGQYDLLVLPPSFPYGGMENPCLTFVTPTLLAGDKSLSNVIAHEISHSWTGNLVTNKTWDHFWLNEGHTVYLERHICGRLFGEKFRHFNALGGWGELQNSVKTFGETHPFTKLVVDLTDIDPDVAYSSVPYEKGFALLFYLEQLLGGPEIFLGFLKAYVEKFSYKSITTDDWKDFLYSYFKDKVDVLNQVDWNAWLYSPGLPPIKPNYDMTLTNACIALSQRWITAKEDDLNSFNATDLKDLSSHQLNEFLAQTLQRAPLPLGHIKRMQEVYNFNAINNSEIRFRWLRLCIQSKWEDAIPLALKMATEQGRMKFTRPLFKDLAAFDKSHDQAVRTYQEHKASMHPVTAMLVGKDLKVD
The test is described as follows: LTA4H Enzyme assay (cleavage of Arg-AMC, fluorescence). It is filed as biochemical. Particulars: LTA4H Enzyme 1 nM, Arg-AMC substrate 50 μM, room temperature 1 h, fluorescence; read-out: IC50 values of LTA4H Enzyme assay. The method, then: The compounds of the invention are assessed for the ability to interact with human LTA4 hydrolase in an enzymatic assay that measures the ability of the enzyme to cleave the peptide bond of arginyl-aminomethylcoumarin (Arg-AMC). LTA4H Enzyme (1 nM final), Arg-AMC substrate (50 μM final), and compound are combined in a reaction buffer (50 mM Tris-HCl (pH 7.5), 100 mM KCl, 0.5% bovine serum albumin) at room temperature for 1 h. The formation of product is assessed by measuring the fluorescence of aminomethylcoumarin product (excitation wavelength 380 nm/emission wavelength 460 nm).
Take `c1ccc2c(c1)OCC(c1ccc(CN3CCOCC3)cc1)O2` (racemic) [Example 2, 4-[4-(2,3-dihydro-1,4-benzodioxin-2-yl)benzyl]morpholine]: the IC50 (in general, the concentration at which inhibition is half-maximal) worked out at 2.45 nM.

Consider `CC1(C)CCN(Cc2ccc(C3COc4ccccc4O3)cc2)CC1` (racemic) [Example 3, 1-[4-(2,3-dihydro-1,4-benzodioxin-2-yl)benzyl]-4,4-dimethylpiperidine], for which the IC50 worked out at 2.57 nM.

For the compound `O=C1NCCC12CCN(Cc1ccc(C3COc4ccccc4O3)cc1)CC2` (racemic) [Example 4, 8-[4-(2,3-dihydro-1,4-benzodioxin-2-yl)benzyl]-2,8-diazaspiro[4.5]decan-1-one], the concentration for half-maximal inhibition (IC50) is 0.74 nM.

As to `FC1CCN(Cc2ccc(C3COc4ccccc4O3)cc2)CC1` (racemic) [Example 5, 1-[4-(2,3-dihydro-1,4-benzodioxin-2-yl)benzyl]-4-fluoropiperidine], the IC50 was 2.96 nM.

On to `O=S1(=O)CCN(Cc2ccc(C3COc4ccccc4O3)cc2)CC1` (racemic) [Example 7, 4-[4-(2,3-dihydro-1,4-benzodioxin-2-yl)benzyl]thiomorpholine 1,1-dioxide], for which the IC50 was 2.79 nM.

Consider `CC(=O)N1CCN(Cc2ccc(C3COc4ccccc4O3)cc2)CC1` (racemic) [Example 11, 1-{4-[4-(2,3-dihydro-1,4-benzodioxin-2-yl)benzyl]piperazin-1-yl}ethanone], for which the IC50 was 2.95 nM.

`O=C(CNCc1ccc(C2COc3ccccc3O2)cc1)N1CCCC1` (racemic) [Example 12, 2-{[4-(2,3-dihydro-1,4-benzodioxin-2-yl)benzyl]amino}-1-(pyrrolidin-1-yl)ethanone]: the IC50 worked out at 10.2 nM.

Consider `c1cnc2c(c1)OCC(c1ccc(CN3CCCC3)cc1)O2` (racemic) [Example 15, 3-[4-(pyrrolidin-1-ylmethyl)phenyl]-2,3-dihydro[1,4]dioxin[2,3-b]pyridine], for which the IC50 came to 0.36 nM.

As for `c1ccc2c(c1)OCC(c1ccc(CN3CCn4cnnc4C3)cc1)O2` (racemic) [Example 16, 7-[4-(2,3-dihydro-1,4-benzodioxin-2-yl)benzyl]-5,6,7,8-tetrahydro[1,2,4]triazolo[4,3-a]pyrazine], the IC50 is 2.32 nM.

`O=S1(=O)CCN(Cc2ccc(C3COc4cccnc4O3)cc2)CC1` (racemic) [Example 17, 3-{4-[(1,1-dioxidothiomorpholin-4-yl)methyl]phenyl}-2,3-dihydro[1,4]dioxin[2,3-b]pyridine]: the IC50 came out at 0.77 nM.

On to `CC(C)(C)NCc1ccc(C2COc3ccccc3O2)cc1` (racemic) [Example 23, N-[4-(2,3-dihydro-1,4-benzodioxin-2-yl)benzyl]-2-methylpropan-2-amine], for which the IC50 was 5.2 nM.

For the compound `CC[C@@H](C)NCc1ccc(C2COc3ccccc3O2)cc1` (mixture of isomers) [Example 24, (2R)-N-[4-(2,3-dihydro-1,4-benzodioxin-2-yl)benzyl]butan-2-amine], the IC50 worked out at 5.9 nM.

As to `OCC1CCN(Cc2ccc(C3COc4ccccc4O3)cc2)CC1` (racemic) [Example 27, {1-[4-(2,3-dihydro-1,4-benzodioxin-2-yl)benzyl]piperidin-4-yl}methanol], the IC50 is 1.2 nM.

Regarding `CC(C)(O)C1CCN(Cc2ccc(C3COc4ccccc4O3)cc2)CC1` (racemic) [Example 28, 2-{1-[4-(2,3-dihydro-1,4-benzodioxin-2-yl)benzyl]piperidin-4-yl}propan-2-ol], the IC50 was found to be 3.4 nM.

As to `OCCCC1CCN(Cc2ccc(C3COc4ccccc4O3)cc2)CC1` (racemic) [Example 29, 3-{1-[4-(2,3-dihydro-1,4-benzodioxin-2-yl)benzyl]piperidin-4-yl}propan-1-ol], the IC50 was 2.04 nM.

On to `CN1CCCN(Cc2ccc(C3COc4ccccc4O3)cc2)CC1` (racemic) [Example 30, 1-[4-(2,3-dihydro-1,4-benzodioxin-2-yl)benzyl]-4-methyl-1,4-diazepane], for which the IC50 was 1.77 nM.

As for `CC(=O)N1CCCN(Cc2ccc(C3COc4ccccc4O3)cc2)CC1` (racemic) [Example 31, 1-{4-[4-(2,3-dihydro-1,4-benzodioxin-2-yl)benzyl]-1,4-diazepan-1-yl}ethanone], the IC50 turned out to be 1.54 nM.

With `c1ccc2c(c1)OCC(c1ccc(CN3CCCOCC3)cc1)O2` (racemic) [Example 32, 4-[4-(2,3-dihydro-1,4-benzodioxin-2-yl)benzyl]-1,4-oxazepan], the IC50 worked out at 1.8 nM.

Turning to `COCCN(C)Cc1ccc(C2COc3ccccc3O2)cc1` (racemic) [Example 33, N-[4-(2,3-dihydro-1,4-benzodioxin-2-yl)benzyl]-2-methoxy-N-methylethanamine], the IC50 was found to be 3.19 nM.

Regarding `O[C@@H]1CCN(Cc2ccc(C3COc4ccccc4O3)cc2)C1` (mixture of isomers) [Example 34, (3R)-1-[4-(2,3-dihydro-1,4-benzodioxin-2-yl)benzyl]pyrrolidin-3-ol], the IC50 came out at 1.89 nM.

In the case of `O=C1NC(=O)C2(CCN(Cc3ccc(C4COc5ccccc5O4)cc3)CC2)N1` (racemic) [Example 35, 8-[4-(2,3-dihydro-1,4-benzodioxin-2-yl)benzyl]-1,3,8-triazaspiro[4.5]decan-2,4-dione], the IC50 turned out to be 0.26 nM.

As for `COC1CN(Cc2ccc(C3COc4ccccc4O3)cc2)C1` (racemic) [Example 36, 1-[4-(2,3-dihydro-1,4-benzodioxin-2-yl)benzyl]-3-methoxyazetidine], the IC50 was 4.45 nM.

As to `CN(C)C(=O)CC1CCN(Cc2ccc(C3COc4ccccc4O3)cc2)CC1` (racemic) [Example 38, 2-{1-[4-(2,3-dihydro-1,4-benzodioxin-2-yl)benzyl]piperidin-4-yl}-N,N-dimethylacetamide], the IC50 stood at 1.14 nM.

In the case of `CS(=O)(=O)C1CCN(Cc2ccc(C3COc4ccccc4O3)cc2)CC1` (racemic) [Example 39, 1-[4-(2,3-dihydro-1,4-benzodioxin-2-yl)benzyl]-4-(methylsulfonyl)piperidine], the IC50 was 2.14 nM.

As for `c1ccc2c(c1)OCC(c1ccc(CN3CCCCCC3)cc1)O2` (racemic) [Example 40, 1-[4-(2,3-dihydro-1,4-benzodioxin-2-yl)benzyl]azepane], the half-inhibitory concentration (IC50) came out at 0.82 nM.

For `c1ccc2c(c1)OCC(c1ccc(CNC3CCCC3)cc1)O2` (racemic) [Example 41, N-[4-(2,3-dihydro-1,4-benzodioxin-2-yl)benzyl]cyclopentanamine], the IC50 came out at 3.71 nM.

With `CN(CCc1ccccn1)Cc1ccc(C2COc3ccccc3O2)cc1` (racemic) [Example 42, N-[4-(2,3-dihydro-1,4-benzodioxin-2-yl)benzyl]-N-methyl-2-(pyridin-2-yl)ethanamine], the IC50 worked out at 0.69 nM.

On to `c1ccc2c(c1)OCC(c1ccc(CNCC3CC3)cc1)O2` (racemic) [Example 43, 1-cyclopropyl-N-[4-(2,3-dihydro-1,4-benzodioxin-2-yl)benzyl]methanamine], for which the IC50 is 4.42 nM.

Take `CCN(CC)Cc1ccc(C2COc3ccccc3O2)cc1` (racemic) [Example 45, N-[4-(2,3-dihydro-1,4-benzodioxin-2-yl)benzyl]-N-ethylethanamine]: the half-maximal inhibitory concentration (IC50) was determined as 0.9 nM.

Consider `N#CC1CN(Cc2ccc(C3COc4ccccc4O3)cc2)C1` (racemic) [Example 46, 1-[4-(2,3-dihydro-1,4-benzodioxin-2-yl)benzyl]azetidine-3-carbonitrile], for which the IC50 came to 24.8 nM.

With `COC1CCN(Cc2ccc(C3COc4ccccc4O3)cc2)C1` (racemic) [Example 47, 1-[4-(2,3-dihydro-1,4-benzodioxin-2-yl)benzyl]-3-methoxypyrrolidine], the 50% inhibitory concentration (IC50) amounted to 1.73 nM.

As to `CS(=O)(=O)NC1CCN(Cc2ccc(C3COc4ccccc4O3)cc2)CC1` (racemic) [Example 48, N-{1-[4-(2,3-dihydro-1,4-benzodioxin-2-yl)benzyl]piperidin-4-yl}methanesulfonamide], the IC50 is 0.16 nM.

On to `O=C1CCCN1CC1CCN(Cc2ccc(C3COc4ccccc4O3)cc2)CC1` (racemic) [Example 50, 1-({1-[4-(2,3-dihydro-1,4-benzodioxin-2-yl)benzyl]piperidin-4-yl}methyl)pyrrolidin-2-one], for which the IC50 came to 0.6 nM.

For the compound `CN(C)C(=O)C1CCN(Cc2ccc(C3COc4ccccc4O3)cc2)CC1` (racemic) [Example 51, 1-[4-(2,3-dihydro-1,4-benzodioxin-2-yl)benzyl]-N,N-dimethylpiperidine-4-carboxamide], the half-maximal inhibitory concentration (IC50) turned out to be 0.82 nM.

With `c1cncc(CNCc2ccc(C3COc4ccccc4O3)cc2)c1` (racemic) [Example 54, 1-[4-(2,3-dihydro-1,4-benzodioxin-2-yl)phenyl]-N-(pyridin-3-ylmethyl)methanamine], the IC50 came out at 5.93 nM.

In the case of `Cn1cnc(CNCc2ccc(C3COc4ccccc4O3)cc2)c1` (racemic) [Example 55, 1-[4-(2,3-dihydro-1,4-benzodioxin-2-yl)phenyl]-N-[(1-methyl-1H-imidazol-4-yl)methyl]methanamine], the IC50 is 3.63 nM.
